Measurements taken from US20250320198A1, “SALT OF ENDOTHELIN A (ETA) RECEPTOR ANTAGONIST COMPOUND, AND PREPARATION METHOD THEREFOR AND MEDICAL USE THEREOF” (SHENZHEN SALUBRIS PHARMACEUTICALS CO., LTD, priority 2022, published 2025).

Tests used:
[1] = Research on compound microsome: prototype remaining and transformation to Atrasentan in human liver microsomes (+NADPH); assay type: in vitro ADME; conditions: for Prototype remaining quantity (%) Mean: human liver microsome (+NADPH), 37° C.
Protocol: Human liver microsomes were all purchased from Rild Liver Disease Research (Shanghai) Co., Ltd.
Reagents: dimethyl sulfoxide (DMSO), acetonitrile, formic acid, and propranolol (internal standard) are all commercially available.
Instrument: Thermo Fisher Scientific LC-MS (U300 UPLC, TSQ QUANTUMN ULTRA triple quadrupole mass spectrometer).
A certain amount of compound was precisely weighed and dissolved in DMSO to prepare a 10 mM stock solution, and the stock solution was diluted with a diluent (ACN:H2O=1:1) to a 100 μM working solution, and then diluted with a 0.1 M potassium phosphate buffer solution to a 3 μM administration solution for later use. 75 μL of liver microsomes were taken and added into 925 μL of a 0.1 M potassium phosphate buffer solution to be mixed uniformly to obtain a 1.5 mg/mL liver microsome suspension, and the liver microsome suspension was pre-incubated at 37° C. for 10 minutes. Preparation at 0 o'clock: 15 μL of the above liver microsome suspension was taken and added into a 6 mM NADPH solution, 150 μL of a propranolol acetonitrile solution was added immediately for precipitation, and then 15 μL of the above administration solution was added and mixed uniformly for later use. Preparation of samples at 20 minutes and 60 minutes: 15 μL of the administration solution was taken, 15 μL of the liver microsome suspension and 15 μL of the 6 mM NADPH solution were added and mixed uniformly, and a mixture was incubated at 37° C. for 20 minutes and 60 minutes, respectively. The preparation of the above samples was carried out using dual-pore parallel operation. When the above samples are incubated to the relevant time point, 150 μL of the propranolol acetonitrile solution was added to terminate the reaction. All the above samples were centrifuged at 4000 rpm for 5 minutes, and 100 μL of a supernatant was taken, added into 100 μL of ultrapure water and mixed uniformly for LC-MS/MS analysis. LC-MS/MS detection conditions are as follows:
Chromatographic column: Waters ACQUITY™ PREMIER HSS T3, 50*2.1 mm, 1.8 μm.
(§1) Mobile phase: water (0.1% formic acid)—acetonitrile. Perform gradient elution according to the table below.
An initial 0 o'clock was taken as 100%, a relative residual content of the drug at each time point was calculated, and each time point of Atrasentan was taken as 100% to calculate the relative amount of transformation of the compound in the embodiment to Atrasentan.

[2] = Pharmacokinetic study of compound in rats (Embodiment 13), intragastric administration; assay type: in vivo; conditions: SD rats
Description: SD rats: male, 200-300 g, purchased from Beijing Vital River Laboratory Animal Technology Co., Ltd.
Reagents: dimethyl sulfoxide (DMSO), polyethylene glycol 400 (PEG-400), normal saline, heparin, acetonitrile, formic acid, and propranolol (internal standard) are all commercially available.
Instrument: Thermo Fisher Scientific LC-MS/MS (U300 UPLC, TSQ QUANTUMN ULTRA triple quadrupole mass spectrometer).
The compound was weighed and dissolved in a DMSO-PEG-400-normal saline (5:60:35, v/v/v) system. After intragastric administration to rats, 200 μL of venous blood was collected in a sodium-fluoride heparinized EP tube at 15 minutes, 30 minutes, 1 hour, 2 hours, 5 hours, 7 hours, and 24 hours after administration and centrifuged at 12000 rpm for 2 minutes. Plasma was taken and frozen and preserved at −80° C. for testing. A certain amount of samples for test was precisely weighed and dissolved in DMSO to 2 mg/mL as a stock solution. An appropriate amount of compound stock solution was accurately sucked, and diluted by adding acetonitrile to prepare a standard series solution. 20 μL of each of the above standard series solution was accurately sucked, 180 μL of blank plasma was added, and vortex mixing was performed to prepare plasma samples equivalent to plasma concentrations of 1 ng/mL, 3 ng/mL, 5 ng/mL, 10 ng/mL, 30 ng/mL, 100 ng/mL, 300 ng/mL, 1000 ng/mL, and 3000 ng/mL. Dual sample analysis was performed for each concentration to establish a standard curve. 30 μL of plasma was taken, 200 μL of an acetonitrile solution of internal standard propranolol (50 ng/mL) was added, vortex mixing was performed, then 100 μL of purified water was added, vortex mixing was performed again, a mixture was centrifuged at 4000 rpm for 5 minutes, and a supernatant was taken for LC-MS/MS analysis. LC-MS/MS detection conditions are as follows: Chromatographic column: Waters ACQUITY™ PREMIER HSS T3, 50*2.1 mm, 1.8 μm.
as §1
After LC-MS/MS detection of blood drug concentration, WinNonlin 6.1 software was used to calculate pharmacokinetic parameters using a non compartmental model method.

[3] = Study on stability of salts (chemical stability by HPLC); assay type: physicochemical
[4] = Study on hygroscopicity by dynamic vapor sorption (DVS); assay type: physicochemical
Protocol: Hygroscopicity of sulphate, phosphate, hydrochloride, and oxalate was evaluated using a dynamic vapor sorption (DVS). The test collected percentage changes in mass of samples under a constant temperature condition of 25° C. with changes in humidity.

Row | Compound | Prototype remaining quantity (%) Mean ([1]; time 0 min (taken as 100%)) | Prototype remaining quantity (%) Mean ([1]; time 20 min) | Prototype remaining quantity (%) Mean ([1]; time 60 min) | other results
1 | CCCCN(CCCC)C(=O)CN1C[C@H](c2ccc3c(c2)OCO3)[C@@H](C(=O)O)[C@@H]1c1ccc(OC)cc1 [Atrasentan, (2R,3R,4S)-4-(benzo[d][1,3]dioxolan-5-yl)-1-[2-(dibutylamino)-2-oxoethyl]-2-(4-methoxyphenyl)pyrrolidine-3-carboxylic acid, reference compound] | 100.0% | 83.3% | 50.3% | –
2 | CCCCN(CCCC)C(=O)CN1C[C@H](c2ccc3c(c2)OCO3)[C@@H](C(=O)OCOC(=O)OCC)[C@@H]1c1ccc(OC)cc1 [Compound 1, 1-[(ethoxycarbonyl)oxy]methyl-(2R,3R,4S)-4-(benzo[d][1,3]dioxolane-5-yl)-1-[2-(dibutylamine)-2-oxoethyl]-2-(4-methoxyphenyl)pyrrolidine-3-carboxylate] | 100.0% | 0.5% | 0.7% | –
3 | CCCCN(CCCC)C(=O)CN1C[C@H](c2ccc3c(c2)OCO3)[C@@H](C(=O)OC(C)OC(=O)OCC)[C@@H]1c1ccc(OC)cc1 (stereo partly drawn) [Compound 2, 1-[(ethoxycarbonyl)oxy]ethyl(2R,3R,4S)-4-(benzo[d][1,3]dioxolane-5-yl)-1-[2-(dibutylamino)-2-oxoethyl]-2-(4-methoxyphenyl)pyrrolidine-3-carboxylate] | 100.0% | 67.8% | 1.6% | –
4 | CCCCN(CCCC)C(=O)CN1C[C@H](c2ccc3c(c2)OCO3)[C@@H](C(=O)OC(C)OC(=O)OC(C)C)[C@@H]1c1ccc(OC)cc1 (stereo partly drawn) [Compound 3, 1-[(isopropoxycarbonyl)oxy]ethyl-(2R,3R,4S)-4-(benzo[d][1,3]dioxolane-5-yl)-1-[2-(dibutylamino)-2-oxoethyl]-2-(4-methoxyphenyl)pyrrolidine-3-carboxylate] | 100.0% | 0.04% | 0.06% | Conversion into Atrasentan in human microsomes (in words) ([1]; human liver microsomes): fully converted into Atrasentan; Absorption after intragastric administration compared with Atrasentan (in words) [2]: better than that of Atrasentan; Exposure level in rats compared with the same dosage of Atrasentan (in words) [2]: higher than those of the same dosage of Atrasentan
5 | CCCCN(CCCC)C(=O)CN1C[C@H](c2ccc3c(c2)OCO3)[C@@H](C(=O)OC(C)OC(=O)OC)[C@@H]1c1ccc(OC)cc1 (stereo partly drawn) [Compound 4, 1-[(methoxycarbonyl)oxy]ethyl-(2R,3R,4S)-4-(benzo[d][1,3]dioxolane-5-yl)-1-[2-(dibutylamino)-2-oxoethyl]-2-(4-methoxyphenyl)pyrrolidine-3-carboxylate] | 100.0% | 0% | 0% | Absorption after intragastric administration compared with Atrasentan (in words) [2]: better than that of Atrasentan; Exposure level in rats compared with the same dosage of Atrasentan (in words) [2]: higher than those of the same dosage of Atrasentan
6 | CCCCN(CCCC)C(=O)CN1C[C@H](c2ccc3c(c2)OCO3)[C@@H](C(=O)OC(C)OC(=O)OCCNC)[C@@H]1c1ccc(OC)cc1 (stereo partly drawn) [Compound 5, 1-(((2-(methylamino)ethoxy)carbonyl)oxy)ethyl-(2R,3R,4S)-4-(benzo[d][1,3]dioxolane-5-yl)-1-[2-(dibutylamino)-2-oxoethyl]-2-(4-methoxyphenyl)pyrrolidine-3-carboxylate] | 100.0% | 0% | 0% | –
7 | CCCCN(CCCC)C(=O)CN1C[C@H](c2ccc3c(c2)OCO3)[C@@H](C(=O)OC(C)OC(=O)OC(C)C)[C@@H]1c1ccc(OC)cc1.O=C(O)C(=O)O (some centres unmarked) [Oxalate] | – | – | – | Stability (in words) ([3]; 25° C./60% RH and 40° C./75% RH, one week): good stability; Purity (area %) ([3]; 25° C./60% RH, one week): 99.39 area %; Purity (area %) ([3]; 40° C./75% RH, one week): 98.52 area %; Purity (area %) ([3]; Start): 99.56 area %; Hygroscopicity (in words) ([4]; 25° C.): lower hygroscopicity; Vapor sorption ([4]; 25° C./80% RH): 0.96%

The next lines start with results.

Row | Prototype remaining quantity (%) Mean ([1]; time 0 min (taken as 100%)) | Prototype remaining quantity (%) Mean ([1]; time 20 min) | Prototype remaining quantity (%) Mean ([1]; time 60 min) | Compound | other results
8 | 100.0% | 0.0% | 0.7% | CCCCN(CCCC)C(=O)CN1C[C@H](c2ccc3c(c2)OCO3)[C@@H](C(=O)OC(C)OC(=O)OC[C@@H](O)CO)[C@@H]1c1ccc(OC)cc1 (stereo partly drawn) [Compound 6, 1-((((S)-2,3-dihydroxypropoxy)carbonyl)oxy)ethyl-(2R,3R,4S)-4-(benzo[d][1,3]dioxolane-5-yl)-1-[2-(dibutylamino)-2-oxoethyl]-2-(4-methoxyphenyl)pyrrolidine-3-carboxylate] | –
9 | 100.0% | 0.04% | 0.03% | CCCCN(CCCC)C(=O)CN1C[C@H](c2ccc3c(c2)OCO3)[C@@H](C(=O)OC(C)OC(=O)OCCO)[C@@H]1c1ccc(OC)cc1 (stereo partly drawn) [Compound 8, 1-(((2-hydroxyethoxy)carbonyl)oxy)ethyl-(2R,3R,4S)-4-(benzo[d][1,3]dioxolane-5-yl)-1-[2-(dibutylamino)-2-oxoethyl]-2-(4-methoxyphenyl)pyrrolidine-3--carboxylate] | –
10 | 100.0% | 0.1% | 0.0% | CCCCN(CCCC)C(=O)CN1C[C@H](c2ccc3c(c2)OCO3)[C@@H](C(=O)OC(C)OC(=O)OC[C@H]2COCCO2)[C@@H]1c1ccc(OC)cc1 (stereo partly drawn) [Compound 9, 1-(((((R)-1,4-dioxane-2-yl)methoxy)carbonyl)oxy)ethyl-(2R,3R,4S)-4-(benzo[d][1,3]dioxolane-5-yl)-1-[2-(dibutylamino)-2-oxoethyl]-2-(4-methoxyphenyl)pyrrolidine-3-carboxylate] | –
11 | 100.0% | 0.0% | 0.0% | CCCCN(CCCC)C(=O)CN1C[C@H](c2ccc3c(c2)OCO3)[C@@H](C(=O)OC(C)OC(=O)OC2COC2)[C@@H]1c1ccc(OC)cc1 (stereo partly drawn) [Compound 10, 1-((((oxetane-3-yl)oxy)carbonyl)oxy)ethyl-(2R,3R,4S)-4-(benzo[d][1,3]dioxolane-5-yl)-1-[2-(dibutylamino)-2-oxoethyl]-2-(4-methoxyphenyl)pyrrolidine-3-carboxylate] | –
12 | 100.0% | 0.5% | 0.0% | CCCCN(CCCC)C(=O)CN1C[C@H](c2ccc3c(c2)OCO3)[C@@H](C(=O)OC(C)OC(=O)OC[C@@H]2COCCO2)[C@@H]1c1ccc(OC)cc1 (stereo partly drawn) [Compound 11, 1-(((((S)-1,4-dioxane-2-yl)methoxy)carbonyl)oxy)ethyl-(2R,3R,4S)-4-(benzo[d][1,3]dioxolane-5-yl)-1-[2-(dibutylamino)-2-oxoethyl]-2-(4-methoxyphenyl)pyrrolidine-3-carboxylate] | –
